Structures can show the parent of a compound that is named as a salt.
Experiments:
serotonin reuptake sites = biological target: T1, serotonin reuptake sites (Rattus norvegicus, UniProt P31652); assay: Affinity for serotonin reuptake sites, [3H]-paroxetine competition; format: binding; conditions: rat frontal cortex membranes, read-out: pKi, serotonin reuptake sites (converted)
T1 construct: The membranes are prepared from rat frontal cortex; from tissue; host or cells: rat frontal cortex membranes
T1 sequence (P31652 whole entry): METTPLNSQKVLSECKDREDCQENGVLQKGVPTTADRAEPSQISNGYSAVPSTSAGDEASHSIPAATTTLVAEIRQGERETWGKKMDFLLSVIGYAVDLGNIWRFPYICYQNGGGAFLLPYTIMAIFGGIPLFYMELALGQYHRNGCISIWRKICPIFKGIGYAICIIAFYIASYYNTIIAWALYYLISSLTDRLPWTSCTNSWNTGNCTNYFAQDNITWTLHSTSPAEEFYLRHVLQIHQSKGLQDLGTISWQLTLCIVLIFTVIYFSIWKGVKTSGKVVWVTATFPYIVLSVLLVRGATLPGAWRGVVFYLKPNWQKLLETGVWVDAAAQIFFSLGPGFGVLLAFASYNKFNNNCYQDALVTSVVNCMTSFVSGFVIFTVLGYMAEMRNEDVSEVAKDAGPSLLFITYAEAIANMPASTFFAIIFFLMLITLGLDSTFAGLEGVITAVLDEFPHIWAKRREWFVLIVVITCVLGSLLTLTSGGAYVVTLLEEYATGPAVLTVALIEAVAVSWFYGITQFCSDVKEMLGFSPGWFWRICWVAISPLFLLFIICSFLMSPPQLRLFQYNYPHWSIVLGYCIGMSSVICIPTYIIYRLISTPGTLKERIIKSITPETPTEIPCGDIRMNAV
Description: The affinity was determined by competition experiments using [^3H]-paroxetine (NEN, Les Ulis, France). The membranes are prepared from rat frontal cortex and are incubated in triplicate for 2 hours at 25° C. with 1.0 nM [^3H]-paroxetine and cold ligand in a final volume of 0.4 ml. The incubation buffer contains […] TRIS-HCl (pH 7.4), 120 mM NaCl and 5 mM KCl. The non-specific binding is determined using 10 μM citalopram. At the end of the incubation, the incubation medium is filtered and washed three times with 5 ml of cooled buffer. The radioactivity retained on the filters is determined by liquid scintillation counting. The binding isotherms are analysed by non-linear regression to determine the IC50 values. Those values are converted into a dissociation constant (Ki) using the Cheng-Prusoff equation: […]
wherein L is the concentration of [^3H]-paroxetine and Kd is the dissociation constant of [^3H]-paroxetine from the serotonin reuptake site (0.13 nM). The results are expressed in pKi.

[1] = test system: aggressiveness in isolated mice; assay: Test of aggressiveness in isolated mice; format: in vivo; conditions: male CD mice, treatment 30 minutes before test
Description: This test allows the evaluation of the intraspecies anti-aggressive activity of a product in mice that have been kept in isolation for several months. The test uses male CD mice (Charles River) weighing from 22 to 25 g. On their arrival, the animals are isolated in individual opaque black cages (23×14×13 cm) with a grill lid, and are housed for a prolonged period (approximately six months) in the experimentation room. The selection of aggressive pairs of mice that will be used for an extended period in the study commences after the animals have been isolated for one month. Once or twice per week a mouse from another cage (intruder) is placed in the cage of a (resident) mouse and the two animals are observed to see if they attack one another (sniffing, pursuing, nibbling, biting) during that trial. At the end of the trial (maximum duration 10 minutes), each mouse is isolated again in its own cage. If attacks have occurred, the same pair will be tested again in the next trial; if there have been no attacks, each mouse of that pair will be placed in the presence of another mouse in the subsequent trial. Thus, in the course of successive trials carried out at a rate of 1 or 2 per week, definitive pairs of mice that will be used for the experiments are selected. […] The latent period (in seconds) of the first attack and the number and total duration (in seconds) of the attacks are recorded. […]

[2] = test system: marble-burying behaviour of mice; assay: Marble-burying test in mice; format: in vivo; conditions: male NMRI mice, 30 minutes' exploration
Description: This test enables evaluation of the capacity of pharmacological agents to inhibit the spontaneous marble-burying behaviour of mice, the inhibition being predictive of antidepressant and/or anti-impulsive action. Male mice of the NMRI strain (Iffa-Credo, 1'Arbresle, France) weighing from 20 to 25 g on the day of the experiment are placed individually in Macrolon boxes (30×18×19 cm) containing 5 cm of sawdust and covered with a perforated plexiglass plate. Twenty four “tiger's eye” glass marbles are evenly distributed on the sawdust at the periphery of the box. At the end of 30 minutes' free exploration, the animals are removed from the box and the number of buried marbles is counted.

5-HT1A receptors = biological target: T2, 5-HT1A receptors (Homo sapiens, UniProt P08908); assay: Affinity for 5-HT1A receptors, [3H]-8-OH-DPAT competition; format: binding; conditions: membranes from CHO cells transfected with 5HT1A receptor, read-out: pKi, 5-HT1A receptor (converted)
T2 construct: expressed in transfected cells; host or cells: CHO cells
T2 sequence (P08908 1-422): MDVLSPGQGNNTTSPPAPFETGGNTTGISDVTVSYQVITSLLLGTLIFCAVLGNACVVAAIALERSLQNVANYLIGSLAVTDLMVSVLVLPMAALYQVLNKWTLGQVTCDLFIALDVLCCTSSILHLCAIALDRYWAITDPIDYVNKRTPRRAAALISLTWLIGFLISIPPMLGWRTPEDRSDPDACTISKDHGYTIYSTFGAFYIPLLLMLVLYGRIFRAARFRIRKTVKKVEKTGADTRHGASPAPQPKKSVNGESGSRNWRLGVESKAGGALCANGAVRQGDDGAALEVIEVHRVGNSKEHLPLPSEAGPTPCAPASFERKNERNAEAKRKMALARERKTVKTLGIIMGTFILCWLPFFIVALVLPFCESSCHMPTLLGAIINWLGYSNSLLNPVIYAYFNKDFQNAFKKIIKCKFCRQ
Description: The affinity was determined by competition experiments using [^3H]-8-OH-DPAT (NEN, Les Ulis, France). The membranes, prepared from CHO cells transfected with 5HT1A receptor, were prepared as described in Neuropharmacol., 1997, 36, 451-459. The membranes were incubated in triplicate for two and a half hours at 25° C. with 0.4 nM [^3H]-8-OH-DPAT and cold ligand in a final volume of 1.0 ml. The incubation buffer contains 50 mM HEPES-NaOH (pH 7.4) and 5 mM MgCl2. The non-specific binding is determined using 10 μM 5-HT. At the end of the incubation, the incubation medium is filtered through filters impregnated with 0.1% polyethyleneimine and washed three times with 5 ml of cooled buffer. The radioactivity retained on the filters is determined by liquid scintillation counting. The binding isotherms are analysed by non-linear regression to determine the IC50 values. Those values are converted into a dissociation constant (Ki) using the Cheng-Prusoff equation: […]
wherein L is the concentration of [^3H]-8-OH-DPAT and Kd is the dissociation constant of [^3H]-8-OH-DPAT from the 5HT1A receptor (0.65 nM). The results are expressed in pKi.

serotonin level = assay: Microdialysis experiment in the rat (frontal cortex); format: in vivo; conditions: 10 mg/kg subcutaneously, cingulate frontal cortex dialysate
Description: Rats are anaesthetised with pentobarbital (60 mg/kg i.p.). They are placed in a Kopf stereotactic device and the cannula guide is implanted in the cingulate frontal cortex in accordance with the coordinates described in the Paxinos and Watson atlas (1982) as follows: AP=+2.2; L=±0.6; DV=−0.2. The rats are placed in separate cages and are not used in dialysis until 5 days later. […] The probe is perfused at a flow rate of 1 μl/min. with a solution of 147.2 mM NaCl, 4 mM KCl and 2.3 mM CaCl2 adjusted to pH 7.3 with a phosphate buffer (0.1 M). Two hours after implantation, samples are collected every 20 minutes for 4 hours. Three baseline samples are taken before administration of the products to be tested. The rats are left in their individual cages for the whole of the experiment. When the experiment is finished, the rats are decapitated and the brain is removed and frozen in isopentane. […]
The simultaneous quantification of dopamine, norepinephrine and serotonin is carried out as follows: 20 μl dialysis samples are each diluted with 20 μl of mobile phase (NaH2PO4: 75 mM; EDTA: 20 μM; sodium 1-decanesulphonate: 1 mM; methanol: 17.5%; triethylamine: 0.01%; pH: 5.7) and 33 μl samples are analysed by HPLC using a reverse phase column thermostatically maintained at 45° C. and quantified by means of a coulometric detector. […]

Structure (SMILES): c1ccc2cc(CCN3CCN(c4nccc5ccoc45)CC3)ccc2c1 (as salt: fumarate) [Example 30, 7-{4-[2-(2-Naphthyl)ethyl]-1-piperazinyl}furo[2,3-c]pyridine]
- melting point: 175 to 181 °C

Structure (SMILES): c1ccc2c(CCN3CCC(c4nccc5occc45)CC3)cccc2c1 [Example 7, 4-{1-[2-(1-Naphthyl)ethyl]-4-piperidinyl}furo[3,2-c]pyridine]
- Ki (serotonin reuptake sites): < 31.6 nM
- Inhibitory Dose 50, aggressiveness in isolated mice [1]: less than 1.5 mg/kg i.p.
- Marble-burying in mice, ID50 [2]: 1.64 mg/kg s.c.
- Ki (5-HT1A receptors): < 31.6 nM
- increase of the level of serotonin (maximum % of the effect compared with the baseline level defined as 0%) (serotonin level): 140.5±15.2%

Structure (SMILES): c1cc2occc2c(N2CCN(CCc3ccc4c(c3)CCO4)CC2)n1 [Example 11, 4-{4-[2-(2,3-Dihydrobenzofuran-5-yl)ethyl]-1-piperazinyl}furo[3,2-c]pyridine]
- Marble-burying in mice, ID50 [2]: 0.94 mg/kg s.c.

Structure (SMILES): CNCCC(Oc1ccc(C(F)(F)F)cc1)c1ccccc1 (centres unmarked) [fluoxetine, reference compound]
- Marble-burying in mice, ID50 [2]: 8.03 mg/kg s.c.
